Assay results reported in the OligoGym collection.
Where “and” joins values, the source holds several entries; their conditions need not be identical. Equal values may be shown once. After the bases stand the sugars from the 5' end (letter, count) and the backbone: PS all phosphorothioate, else s phosphorothioate and o phosphodiester by linkage. HELM strings list units from the 5' end as sugar, base in round brackets, then linkage (d deoxyribose, r ribose, m 2'-O-methyl, p phosphodiester). Methylation of C is not given here. [moe] = 2'-O-(2-methoxyethyl) (MOE); [cEt] = constrained ethyl (cEt); [sp] = phosphorothioate linkage; e = 2'-O-(2-methoxyethyl) (MOE); k = constrained ethyl (cEt); d = 2'-deoxy (DNA)

What was measured:
[1] = target: IRF5; conditions: ASO
[2] = target: HBV; conditions: ASO

Row | Substance | target mRNA inhibition ([1]; KARPAS-229, 4 µM) | further results
1 | GGGCACAGCGCAGGTT (sugars kdddddddddkekeke, PS) | 33% | –
2 | GGTCTGGCCCTTTTGG (sugars kddddddddddkekek, PS) | 0% | –
3 | GGTCTGGCCCTTTTGG (sugars kdddddddddkekeke, PS) | 0% | –
4 | GGTCTGGCCCTTTTGG (sugars kkddddddddddkeke, PS) | 0% | –
5 | GGTCTTGACCTCCCGC (sugars kddddddddddkekek, PS) | 37% | –
6 | GGTCTTTGAGGTCTGG (sugars k2 d8 e4 k2, PS) | 56% | –
7 | GGTCTTTGAGGTCTGG (sugars k3 d9 k3 e1, PS) | 33% | –
8 | GGTCTTTGAGGTCTGG (sugars kkddddddddkekekk, PS) | 52% | –
9 | GGTGTATTTCCCTGTC (sugars k3 d9 k3 e1, PS) | 0% | –
10 | GGTGTATTTCCCTGTC (sugars kdddddddddkekeke, PS) | 0% | –
11 | GGTGTATTTCCCTGTC (sugars kkddddddddkekekk, PS) | 0% | –
12 | GGTTCTTGGACTCTCA (sugars k2 d8 e4 k2, PS) | 54% and 64% | target mRNA inhibition ([1]; KARPAS-229, 0.44444 µM): 25%; target mRNA inhibition ([1]; KARPAS-229, 1.33333 µM): 51%; target mRNA inhibition ([1]; KARPAS-229, 12 µM): 77%
13 | GGTTCTTGGACTCTCA (sugars k2 d9 e3 k2, PS) | 48% and 73% | target mRNA inhibition ([1]; KARPAS-229, 0.44444 µM): 46%; target mRNA inhibition ([1]; KARPAS-229, 1.33333 µM): 64%; target mRNA inhibition ([1]; KARPAS-229, 12 µM): 84%
14 | GGTTCTTGGACTCTCA (sugars kkdddddddddkekek, PS) | 0% | –
15 | GGTTCTTGGACTCTCA (sugars kkkddddddddkdkdk, PS) | 28% | –
16 | GTCTGGCCCTTTTGGA (sugars k2 d8 e4 k2, PS) | 0% | –
17 | GTCTGGCCCTTTTGGA (sugars kkdddddddddkekek, PS) | 0% | –
18 | GTCTTGACCTCCCGCT (sugars k2 d8 e4 k2, PS) | 34% | –
19 | GTCTTGACCTCCCGCT (sugars k2 d9 e3 k2, PS) | 54% and 41% | target mRNA inhibition ([1]; KARPAS-229, 0.44444 µM): 22%; target mRNA inhibition ([1]; KARPAS-229, 1.33333 µM): 32%; target mRNA inhibition ([1]; KARPAS-229, 12 µM): 58%
20 | GTCTTGACCTCCCGCT (sugars kkddddddddkekekk, PS) | 26% | –
21 | GTGACTGTATTACCTA (sugars k3 d10 k3, PS) | 62% and 70% | target mRNA inhibition ([1]; KARPAS-229, 0.44444 µM): 9%; target mRNA inhibition ([1]; KARPAS-229, 1.33333 µM): 39%; target mRNA inhibition ([1]; KARPAS-229, 12 µM): 81%
22 | GTGAGACGAGCAAAGG (sugars k3 d10 k3, PS) | 49% and 74% | target mRNA inhibition ([1]; KARPAS-229, 0.44444 µM): 60%; target mRNA inhibition ([1]; KARPAS-229, 1.33333 µM): 49%; target mRNA inhibition ([1]; KARPAS-229, 12 µM): 77%
23 | GTGAGTCTCAAACCAG (sugars k3 d9 k3 e1, PS) | 44% and 50% | target mRNA inhibition ([1]; KARPAS-229, 0.44444 µM): 23%; target mRNA inhibition ([1]; KARPAS-229, 1.33333 µM): 39%; target mRNA inhibition ([1]; KARPAS-229, 12 µM): 59%
24 | GTGAGTCTCAAACCAG (sugars k3 d10 k3, PS) | 9% | –
25 | GTGAGTCTCAAACCAG (sugars kdddddddddkekeke, PS) | 0% | –

Row | Substance | target mRNA inhibition ([1]; KARPAS-229, 4 µM) | further results
26 | GTGAGTCTCAAACCAG (sugars kkdddddddddkekek, PS) | 0% | –
27 | GTGTATTTCCCTGTCT (sugars k2 d8 e4 k2, PS) | 0% | –
28 | GTGTATTTCCCTGTCT (sugars k3 d9 k3 e1, PS) | 30% | –
29 | GTGTATTTCCCTGTCT (sugars kkdddddddddkdkdk, PS) | 0% | –
30 | GTTATCTCCGTCCTGG (sugars kekdddddddddeekk, PS) | 13% | –
31 | GTTATCTCCGTCCTGG (sugars kkdddddddddkekek, PS) | 0% | –
32 | GTTATCTCCGTCCTGG (sugars kkddddddddkekekk, PS) | 0% | –
33 | GTTATCTCCGTTCCTGG (sugars kkkdddddddddkeked, PS) | 0% | –
34 | GTTATCTCCGTTCCTGG (sugars kkkddddddddkekekd, PS) | 0% | –
35 | GTTCTTGGACTCTCAA (sugars k2 d8 e4 k2, PS) | 8% | –
36 | GTTCTTGGACTCTCAA (sugars kkddddddddddkeke, PS) | 27% | –
37 | GTTCTTGGACTCTCAA (sugars kkdddddddddkekek, PS) | 31% | –
38 | RNA1{[moe](A)[sp].[cEt](A)[sp].[cEt](G)[sp].d(A)[sp].d(A)[sp].d(G)[sp].d(A)[sp].d(T)[sp].d(G)[sp].d(A)[sp].d(G)[sp].d(G)[sp].d(C)[sp].[cEt](A)[sp].[cEt](T)[sp].[moe](A)}$$$$V2.0 | – | target mRNA inhibition ([2]; HepG2, 0.07 µM): 62% and 65%
39 | RNA1{[moe](A)[sp].[cEt](A)[sp].[moe](G)[sp].[cEt](C)[sp].d(G)[sp].d(A)[sp].d(A)[sp].d(G)[sp].d(T)[sp].d(G)[sp].d(C)[sp].d(A)[sp].d(C)[sp].[moe](A)[sp].[moe](C)[sp].[moe](G)[sp].[moe](G)}$$$$V2.0 | – | target mRNA inhibition ([2]; HepG2, 0.009375 µM): 29%; target mRNA inhibition ([2]; HepG2, 0.01875 µM): 30%; target mRNA inhibition ([2]; HepG2, 0.0375 µM): 41%; target mRNA inhibition ([2]; HepG2, 0.075 µM): 71%; target mRNA inhibition ([2]; HepG2, 0.15 µM): 86%; target mRNA inhibition ([2]; HepG2, 0.3 µM): 88%
40 | RNA1{[moe](A)[sp].[cEt](A)[sp].d(C)[sp].d(C)[sp].d(A)[sp].d(C)[sp].d(T)[sp].d(G)[sp].d(A)[sp].d(A)[sp].d(C)[sp].d(A)[sp].[cEt](A)[sp].[moe](A)[sp].[cEt](T)[sp].[moe](G)}$$$$V2.0 | – | target mRNA inhibition ([2]; HepG2, 0.07 µM): 55% and 38%
41 | RNA1{[moe](A)[sp].[cEt](A)[sp].d(C)[sp].d(T)[sp].d(G)[sp].d(G)[sp].d(A)[sp].d(G)[sp].d(C)[sp].d(C)[sp].d(A)[sp].d(C)[sp].[cEt](C)[sp].[moe](A)[sp].[cEt](G)[sp].[moe](C)}$$$$V2.0 | – | target mRNA inhibition ([2]; HepG2, 0.07 µM): 65% and 53%
42 | RNA1{[moe](A)[sp].[cEt](C)[sp].[cEt](A)[sp].d(A)[sp].d(A)[sp].d(T)[sp].d(G)[sp].d(G)[sp].d(C)[sp].d(A)[sp].d(C)[sp].d(T)[sp].d(A)[sp].[cEt](G)[sp].[cEt](T)[sp].[moe](A)}$$$$V2.0 | – | target mRNA inhibition ([2]; HepG2, 0.07 µM): 67% and 61%
43 | RNA1{[moe](A)[sp].[cEt](C)[sp].d(C)[sp].d(A)[sp].d(A)[sp].d(T)[sp].d(T)[sp].d(T)[sp].d(A)[sp].d(T)[sp].d(G)[sp].d(C)[sp].[cEt](C)[sp].[moe](T)[sp].[cEt](A)[sp].[moe](C)}$$$$V2.0 | – | target mRNA inhibition ([2]; HepG2, 0.07 µM): 40% and 51%
44 | RNA1{[moe](A)[sp].[cEt](C)[sp].d(C)[sp].d(A)[sp].d(C)[sp].d(T)[sp].d(G)[sp].d(A)[sp].d(A)[sp].d(C)[sp].d(A)[sp].d(A)[sp].[cEt](A)[sp].[moe](T)[sp].[cEt](G)[sp].[moe](G)}$$$$V2.0 | – | target mRNA inhibition ([2]; HepG2, 0.07 µM): 75% and 64%
45 | RNA1{[moe](A)[sp].[cEt](G)[sp].[cEt](A)[sp].d(A)[sp].d(G)[sp].d(A)[sp].d(T)[sp].d(G)[sp].d(A)[sp].d(G)[sp].d(G)[sp].d(C)[sp].d(A)[sp].[cEt](T)[sp].[cEt](A)[sp].[moe](G)}$$$$V2.0 | – | target mRNA inhibition ([2]; HepG2, 0.07 µM): 64% and 63%
46 | TAGTGTCATGGAATTT (sugars k3 d10 k3, PS) | 38% | –
47 | TCACCACTGTGTACCC (sugars kkdddddddddkekek, PS) | 0% | –
48 | TCACCACTGTGTACCC (sugars kkddddddddkekekk, PS) | 0% | –
49 | TCACCACTGTGTACCC (sugars kkkddddddddkekek, PS) | 0% | –
50 | TCCAATTTTGCATTCC (sugars kkkdddddddddkeke, PS) | 14% | –

Row | Substance | target mRNA inhibition ([1]; KARPAS-229, 4 µM) | further results
51 | TCCAATTTTGCATTCC (sugars kkkddddddddkdkdk, PS) | 32% | –
52 | TCTGCAGGGAGTCAGA (sugars k3 d10 k3, PS) | 0% | –
53 | TCTGGCCCTTTTGGAA (sugars kkddddddddkekekk, PS) | 0% | –
54 | TGAATTTTGTGACTGT (sugars k3 d10 k3, PS) | 64% and 70% | target mRNA inhibition ([1]; KARPAS-229, 0.44444 µM): 32%; target mRNA inhibition ([1]; KARPAS-229, 1.33333 µM): 59%; target mRNA inhibition ([1]; KARPAS-229, 12 µM): 81%
55 | TGAGACGAGCAAAGGG (sugars k3 d10 k3, PS) | 22% | –
56 | TGAGTCATGGAGCTGAG (sugars k2 d9 e3 k2 d1, PS) | 16% | –
57 | TGAGTCATGGGCTGAG (sugars k3 d10 k3, PS) | 0% | –
58 | TGAGTCATGGGCTGAG (sugars kkddddddddddkeke, PS) | 0% | –
59 | TGAGTCATGGGCTGAG (sugars kkkdddddddddkeke, PS) | 17% | –
60 | TGAGTCTCAAACCAGG (sugars k3 d9 k3 e1, PS) | 0% | –
61 | TGAGTCTCAAACCAGG (sugars k3 d10 k3, PS) | 16% | –
62 | TGCACTGACACAGGCG (sugars k3 d9 k3 e1, PS) | 0% | –
63 | TGCACTGACACAGGCG (sugars kkddddddddddkeke, PS) | 16% | –
64 | TGCACTGACACAGGCG (sugars kkdddddddddkdkdk, PS) | 0% | –
65 | TGTCTAGTGTCATGGA (sugars k3 d9 k3 e1, PS) | 39% | –
66 | TGTCTAGTGTCATGGA (sugars kkdddddddddkdkdk, PS) | 40% | –
67 | TTATCTCCGTCCTGGC (sugars k3 d9 k3 e1, PS) | 0% | –
68 | TTATTTCTGCTCCAGG (sugars k3 d10 k3, PS) | 55% and 77% | target mRNA inhibition ([1]; KARPAS-229, 0.44444 µM): 51%; target mRNA inhibition ([1]; KARPAS-229, 1.33333 µM): 66%; target mRNA inhibition ([1]; KARPAS-229, 12 µM): 84%
69 | TTATTTCTGCTCCAGG (sugars kddddddddddkekek, PS) | 0% | –
70 | TTATTTCTGCTCCAGG (sugars kkdddddddddkekek, PS) | 9% | –
71 | TTCTGCAGGGAGTCAG (sugars k3 d10 k3, PS) | 0% | –
72 | TTGTCTAGTGTCATGG (sugars kdddddddddkekeke, PS) | 8% | –
73 | TTGTCTAGTGTCATGG (sugars kkdddddddddkekek, PS) | 24% | –
74 | TTTCTTGTCTAGTGTC (sugars k3 d10 k3, PS) | 53% | –
75 | TTTGCTCTAAACCATT (sugars k3 d10 k3, PS) | 2% | –
